In assay [1] the test system is LoVo. The experiment in a line: Cytotoxicity against human LoVo cells. It counts as functional, cell-based.
For assay [2], the system named is KB. Description: Cytotoxicity against human KB cells. It counts as functional, cell-based.

As usually defined, the IC50 is the concentration that gives 50% inhibition.

≈ marks a conversion by molar mass, not a printed value. Calls of active or inactive are those of the source. No cut-off for these calls is given here.

On to `CC[C@H](C)[C@@H](C(=O)N1CCC[C@H]1c1nccs1)N(C)C(=O)[C@H](CC(C)C)N(C)C(=O)[C@H](Cc1ccc(OC)cc1)N(C)C(=O)/C=C(\C)OC`, for which the result in assay [1] and in assay [2] was inactive.

Take `CC(C)[C@@H]1NC(=O)CNC(=O)[C@@H]2CSC(=N2)[C@H](C(C)(C)O)OC(=O)C(C)(C)[C@H](CCCC(C)(Cl)Cl)OC(=O)c2csc1n2` [LYNGBYABELLIN B]: the IC50 came out at 0.83 µg/mL (≈ 1.22 µM) in assay [1] and 0.1 µg/mL (≈ 0.147 µM) in assay [2].

Values taken from ChEMBL document CHEMBL1155611, “Isolation and structure of the cytotoxin lyngbyabellin B and absolute configuration of lyngbyapeptin A from the marine cyanobacterium Lyngbya majuscula” (J Nat Prod, 2000).
